Laboratory results published in US9737540B2, “Combination treatment of cancer” (ASTRAZENECA AB, priority 2011, dated 2017).
Read-outs that look alike come from different tables or passages of the source.

Tests used:
[1] = system: VCAP prostate tumour cell line; test: Proliferation assay, Sytox Green endpoint, live cell number after 5 days (VCAP); type: cell-based; conditions: VCAP cells; monotherapy or with MDV-3100 0.1 μM to 10 μM; n=3
Experimental: (§1) The LNCaP and VCAP prostate tumour cell lines (American Tissue Culture Collection) were routinely cultured in RMPI supplemented with 10% FCS and 2 mM L-glutamine. To determine the effect of AZD5363 and MDV-3100, either as a monotherapy or in combination, on cell growth, a proliferation assay was performed using the Sytox Green endpoint to measure live cell number after 5 days. […] Cells were then dosed with increasing concentrations of AZD5363 (0.01-1 μM), MDV-3100 (0.1-10 μM) or a combination of each agent in a 6×6 matrix format. After 5-day exposure to compound, Sytox Green nucleic acid dye (Invitrogen) diluted in TBS-EDTA (TBS=Tris-buffered saline, EDTA=ethylenediaminetetraacetic acid) buffer was added to cells at a final concentration of […] and the number of dead cells detected using an Acumen Explorer. Cells were then permeabilised by the addition of saponin (0.03% final concentration, diluted in TBS-EDTA buffer), incubated overnight and a total cell count measured. The live cell count was then determined by subtracting the number of dead cells per well from the total number of cells. […] The data is presented as % growth using the NCI formulae as follows: [(Ti-Tz)/(C-Tz)]×100 for concentrations for which Ti>/=Tz [(Ti-Tz)/Tz]×100 for concentrations for which Ti<Tz. […] Synergism of the drug combination was evaluated using a unified approach described by C. […]

[2] = system: LNCaP prostate tumour cell line; test: Proliferation assay, Sytox Green endpoint, live cell number after 5 days (LNCaP); type: cell-based; conditions: LNCaP cells; monotherapy or with MDV-3100 0.1 μM to 10 μM; n=3
Experimental: as §1

[3] = system: LNCaP prostate cancer cells (PTEN null, androgen receptor positive); type: in vivo; conditions: castrated mice

SMILES | Effect on cell growth (mean % growth, FIG. 2) [1] | Effect on cell growth / cell death (mean % growth, FIG. 1) [2] | inhibition of tumour volume ([3]; AZD5363 monotherapy 100 mg/kg bd, 5 days on, 2 days off) [%] | inhibition of tumour volume ([3]; bicalutamide monotherapy 50 mg/kg qd) [%]
NC1(C(=O)N[C@@H](CCO)c2ccc(Cl)cc2)CCN(c2ncnc3[nH]ccc23)CC1 [AZD5363, (S)-4-amino-N-(1-(4-chlorophenyl)-3-hydroxypropyl)-1-(7H-pyrrolo[2,3-d]pyrimidin-4-yl)piperidine-4-carboxamide] | can inhibit the growth of VCAP cells as a monotherapy | can inhibit the growth of LNCaP cells and induce cell death as a monotherapy | 56 | –
CC(O)(CS(=O)(=O)c1ccc(F)cc1)C(=O)Nc1ccc(C#N)c(C(F)(F)F)c1 (stereo not shown) [bicalutamide, N-[4-cyano-3-(trifluoromethyl)-phenyl]-3-[(4-fluorophenyl)-sulfonyl]-2-hydroxy-2-methylpropanamide, reference compound] | – | – | – | 42
